Key:
[1] = system: Erysiphe [syn. Blumeria] graminis forma specialis. tritici; test: Activity against mildew of wheat (protective, wheat seedlings cultivar Kanzler); type: in vivo; conditions: 7 days
Experimental: The active compounds, separately or together, were formulated as a 10% emulsion in a mixture of 63% by weight of cyclohexanone and 27% by weight of emulsifier, and diluted with water to the desired concentration. Evaluation was carried out by determining the infected leaf areas in percent. These percentages were converted into efficacies. The efficacy (W) was determined as follows using Abbot's formula: [formula] α corresponds to the fungal infection of the treated plants in % and β corresponds to the fungal infection of the untreated (control) plants in % An efficacy of 0 means that the infection level of the treated plants corresponds to that of the untreated control plants; an efficacy of 100 means that the treated plants were not infected. The expected efficacies of the mixtures of the active compounds were determined using Colby's formula [R. S. Colby, Weeds 15, 20-22 (1967)] and compared with the observed efficacies. E=x+y−x·y/100 Colby's formula: • E expected efficacy, expressed in % of the untreated control, when using the mixture of the active compounds A and B at the concentrations a and b • x efficacy, expressed in % of the untreated control, when using the active compound A at the concentration a • y efficacy, expressed in % of the untreated control, when using the active compound B at the concentration b Leaves of wheat seedlings of the cultivar “Kanzler” grown in pots were sprayed to runoff point with an aqueous preparation of active compound which had been prepared from a stock solution comprising 10% of active compound, 85% of cyclohexanone. and 5% of emulsifier, and, 24 hours after the spray coating had dried on, the leaves were dusted with spores of mildew of wheat (Erysiphe [syn. Blumeria] graminis forma specialis. tritici). The test plants were then placed in a greenhouse at 20-24° C. and 60-90% relative atmospheric humidity. After 7 days, the extent of the development of the mildew was determined visually in % infection of the entire leaf area. The visually determined values for the percentage of diseased leaf areas were converted into efficacies as % of the untreated control. An efficacy of 0 means the same disease level as in the untreated control, an efficacy of 100 means a disease level of 0%. The expected efficacies for the active compound combinations were determined using Colby's formula mentioned above and compared with the observed efficacies.

Puccinia recondita = test: Curative activity against brown rust of wheat (wheat seedlings cultivar Kanzler); type: in vivo; conditions: 7 days
Experimental: The active compounds, separately or together, were formulated as a 10% emulsion in a mixture of 63% by weight of cyclohexanone and 27% by weight of emulsifier, and diluted with water to the desired concentration. Evaluation was carried out by determining the infected leaf areas in percent. These percentages were converted into efficacies. The efficacy (W) was determined as follows using Abbot's formula: [formula] α corresponds to the fungal infection of the treated plants in % and β corresponds to the fungal infection of the untreated (control) plants in % An efficacy of 0 means that the infection level of the treated plants corresponds to that of the untreated control plants; an efficacy of 100 means that the treated plants were not infected. The expected efficacies of the mixtures of the active compounds were determined using Colby's formula [R. S. Colby, Weeds 15, 20-22 (1967)] and compared with the observed efficacies. E=x+y−x·y/100 Colby's formula: • E expected efficacy, expressed in % of the untreated control, when using the mixture of the active compounds A and B at the concentrations a and b • x efficacy, expressed in % of the untreated control, when using the active compound A at the concentration a • y efficacy, expressed in % of the untreated control, when using the active compound B at the concentration b Leaves of wheat seedlings of the cultivar “Kanzler” grown in pots were dusted with spores of brown rust (Puccinia recondita). The pots were then placed in a chamber with high atmospheric humidity (90-95%), at 20-22° C. for 24 hours. During this time, the spores germinated and the germinal tubes penetrated into the leaf tissue. The next day, the infected plants were sprayed to runoff point with an aqueous formulation of active compound prepared from a stock solution comprising 10% of active compound, 85% of cyclohexanone and 5% of emulsifier. After the spray coating had dried on, the test plants were cultivated in a greenhouse at 20-22° C. and 65-70% relative atmospheric humidity for 7 days. Thereafter, the extent of the rust fungus development on the leaves was determined. The visually determined values for the percentage of diseased leaf areas were converted into efficacies as % of the untreated control. An efficacy of 0 means the same disease level as in the untreated control, an efficacy of 100 means a disease level of 0%. The expected efficacies for the combinations of active compounds were determined using Colby's formula mentioned above and compared with the observed efficacies.

[2] = 0.015 ppm active compound in the spray liquor
[3] = 0.06 ppm active compound in the spray liquor
[4] = 0.25 ppm active compound in the spray liquor
[5] = 1 ppm active compound in the spray liquor
[6] = 4 ppm active compound in the spray liquor

Compound: OC(Cc1ccccc1Cl)(Cn1nc[nH]c1=S)C1(Cl)CC1 (centres unmarked) [Compound I, 2-[2-(1-chlorocyclopropyl)-3-(2-chlorophenyl)-2-hydroxypropyl]-2,4-dihydro-[1,2,4]-triazole-3-thione]
- Efficacy in % of the untreated control [1, 2]: 0 % of the untreated control
- Efficacy in % of the untreated control [1, 3]: 0 % of the untreated control
- Efficacy in % of the untreated control [1, 4]: 0 % of the untreated control
- Efficacy in % of the untreated control [1, 5]: 0 % of the untreated control
- Efficacy in % of the untreated control [1, 6]: 22 % of the untreated control
- Efficacy in % of the untreated control (Puccinia recondita; 0.006 ppm active compound in the spray liquor): 0 % of the untreated control
- Efficacy in % of the untreated control (Puccinia recondita; [2]): 0 % of the untreated control
- Efficacy in % of the untreated control (Puccinia recondita; [4]): 0 % of the untreated control
- Efficacy in % of the untreated control (Puccinia recondita; [5]): 0 % of the untreated control

Compound: CO/N=C(/C(=O)OC)c1ccccc1CO/N=C(\C)c1cccc(C(F)(F)F)c1 [Compound II, trifloxystrobin]
- Efficacy in % of the untreated control [1, 3]: 0 % of the untreated control
- Efficacy in % of the untreated control [1, 4]: 22 % of the untreated control
- Efficacy in % of the untreated control [1, 5]: 44 % of the untreated control
- Efficacy in % of the untreated control [1, 6]: 83 % of the untreated control
- Efficacy in % of the untreated control (Puccinia recondita; [3]): 0 % of the untreated control
- Efficacy in % of the untreated control (Puccinia recondita; [4]): 0 % of the untreated control

Compound: CO/C=C(/C(=O)OC)c1ccccc1COc1cccc(C(F)(F)F)n1 [Compound III, picoxystrobin]
- Efficacy in % of the untreated control [1, 4]: 11 % of the untreated control
- Efficacy in % of the untreated control (Puccinia recondita; [3]): 0 % of the untreated control
- Efficacy in % of the untreated control (Puccinia recondita; [4]): 0 % of the untreated control
- Efficacy in % of the untreated control (Puccinia recondita; [5]): 33 % of the untreated control

Compound: COC(=O)N(OC)c1ccccc1COc1ccn(-c2ccc(Cl)cc2)n1 [Compound IV, pyraclostrobin]
- Efficacy in % of the untreated control [1, 4]: 0 % of the untreated control
- Efficacy in % of the untreated control [1, 5]: 0 % of the untreated control
- Efficacy in % of the untreated control (Puccinia recondita; [3]): 0 % of the untreated control
- Efficacy in % of the untreated control (Puccinia recondita; [4]): 0 % of the untreated control

— US10645930B2, “Fungicidal mixtures based on prothioconazole and a strobilurin derivative” (BASF SE, priority 2002, dated 2020)
